The values below come from US20030060438A1, “Oligonucleotides and other modulators of the NK-1 receptor pathway and therapeutic uses thereof” (priority 2000, published 2003).

Holding throughout (type): in vivo, rat
Data set [1] deals with NK-1 receptor. In words: Capsaicin test, nociceptive behaviour after plantar injection, intrathecal oligonucleotide. As to conditions: intrathecal continuous infusion 2 micro grams/microlitres/h for 7 days; vs ACSF or MIS. From the text: The effect of intrathecal administration of NK-1 receptor antisense oligonucleotide on the nociceptive responses induced by capsaicin is shown in FIG. 2. This test consists of injecting a dilute solution of the active ingredient of hot peppers, capsaicin subcutaneously in the plantar surface of the rat hind paw. Capsaicin, C18H27NO3, is a known painful stimulus, especially of c-fibers, which are associated with substance P.
Capsaicin produces nociceptive (pain) behaviors over a period of about 5 minutes. The index of nociceptive behavior was assessed based a weighted pain intensity scale, where the animal is given a value of 0 for showing no signs of favoring of the injected paw, 1—favoring of hind paw such that it is resting lightly on the floor, 2—elevation of hind paw, 3—licking or vigorously shaking the hind paw. The numerical ratings were calculated by multiplying the amount of time the rats spent in each category by the weighted factor indicated above. This was expressed by the following formula: (time spent in category 0*0+time spent in category 1*1+time spent in category 2*2+time spent in category 3*3)/180 seconds. Oligonucleotides or ASCF control (artificial cerebral spinal fluid) were administered for 7 days prior to testing by continuous infusion (2 micro grams/microlitres/h) via Alzet™ minipumps attached to intrathecal catheters for spinal delivery. […]

The test system of data set [2] is NK-1 receptor. Briefly: Neuropathic pain model (sciatic nerve constriction), mechanical allodynia by von Frey hairs, intrathecal oligonucleotide. The protocol:
Neuropathic pain is a continuous, permanent pain that results from nerve damage. One common feature of neuropathic pain is mechanical allodyina (a painful response to a non-painful stimulus). Humans with neuropathic pain cannot wear clothing on affected regions of the skin or cannot stand in air currents, because their sensitivity is so profound. Neuropathic pain was induced by constriction of the sciatic nerve. Mechanical response thresholds (grams of force) were assessed by application of von Frey hairs to the plantar surface of the ipsilateral hind paw for all groups prior to sciatic nerve constriction surgery (baseline values: B). Oligonucleotides or ASCF control ([…]) via Alzet® minipumps attached to intrathecal catheters for spinal delivery. […] Statistical analyses on mechanical thresholds were performed using the non-parametric Friedman's repeated measures analysis of variance on ranks followed by Wilcoxon signed rank test for post hoc comparisons. […] The lower panel illustrates the mechanical response thresholds are not affected in the contralateral hind paw.
Neuropathic pain was induced by constriction of the sciatic nerve. Mechanical response thresholds (grams of force) were assessed by application of von Frey hairs to the plantar surface of the ipsilateral hind paw for all groups prior to sciatic nerve constriction surgery (baseline values: B). Oligonucleotides or ASCF control ([…]) via Alzet® minipumps attached to intrathecal catheters for spinal delivery.
(§1) Neuropathic pain was induced by constriction of the sciatic nerve. Mechanical response thresholds (grams of force) were assessed by application of von Frey hairs to the plantar surface of the ipsilateral hind paw for all groups prior to sciatic nerve constriction surgery (baseline values: B). Oligonucleotides or ASCF control (artificial cerebral spinal fluid) was administered for 72 h by continuous infusion (2 micro grams/microlitres/h) via Alzet® minipumps attached to intrathecal catheters for spinal delivery starting 6 days following nerve constriction (once the mechanical allodynia was established in all groups).
as §1, with “6 days” for “72 h”, “(0.45” for “(2”, “7” for “6”

In data set [3] the test system is NK-1 receptor. Briefly: Western blot of NK-1 receptor protein in lumbar spinal cord after intrathecal oligonucleotide, neuropathic pain model. Conditions: intrathecal 2 micro grams/microlitres/h, 48 h prior to sciatic nerve constriction and continuously for 6 days. How it is done: Oligonucleotides or ASCF control (artificial cerebral spinal fluid) was administered for 48 h prior to sciatic nerve constriction and continuously for 6 days (2 micro grams/microlitres/h) via Alzet® minipumps attached to intrathecal catheters for spinal delivery. Rats were sacrificed by decapitation and lumbar spinal cords were dissected and processed for Western blotting analysis. Samples were resolved using 10% Tris-glycine gels and the proteins were electroblotted onto nitrocellulose membranes. Molecular mass markers are presented in the right column. The arrow indicates the NK-1 receptor.
On the technique in general: A western blot detects proteins with antibodies after separation by electrophoresis.

In data set [4] the test system is NK-1 receptor. In words: CFA arthritis model, joint flexibility, systemic oligonucleotide. As to conditions: day 18 after CFA; 300 micro grams/kg, Q12 h, intraperitoneal. How it is done:
Complete Freund's Adjuvant (CFA) was injected into the ankle joint of the rat and the flexibility of the affected joint was assessed on day 18 during the arthritic phase of the model. This was accomplished by measuring the difference between the extension and flexion of the affected joint. Antisense (AS) oligonucleotide (300 micro grams/kg, Q12 h, intraperitoneal) or saline was administered for 2 days prior to CFA injection and for the subsequent 18 days. […] Statistical analysis was performed using a one way ANOVA and post hoc analysis using the Dunnett's test.

The test system of data set [5] is NK-1 receptor. In words: CFA arthritis model, collagen breakdown products in plasma, systemic oligonucleotide. Conditions: days 3 and 18 following CFA injection; 300 micro grams/kg, Q12 h, intraperitoneal. The protocol:
Complete Freund's Adjuvant (CFA) was injected into the ankle joint of the rat and the levels of collagen breakdown products were assessed on days 3 and 18 following CFA injection. This was accomplished by measuring collagen degradation in the plasma of blood samples taken from the tail vein of rats while lightly anesthetized with halothane anesthesia. Antisense (AS) oligonucleotide (300 micro grams/kg, Q12 h, intraperitoneal) or saline was administered for 2 days prior to CFA injection and for the subsequent 18 days. […] (Pervious experiments have identified that the levels of collagen breakdown products are maximal at day 3-5 after CFA injection). Statistical analysis was performed using an unpaired t-test.

Data set [6] relates to NK-1 receptor. In words: Zymosan model of inflammatory bowel disease, Evans blue plasma extravasation of the colon. As to conditions: 300 micro grams/kg, Q12 h, intraperitoneal for 6 days prior to rectal zymosan; Evans blue three hours after zymosan. The protocol:
Inflammatory bowel disease (IBD) is a generic term used to describe major clinical entities including Crohn's disease and ulcerative colitis. IBD was simulated by rectal administration of zymosan, a complement-activating substance. Antisense (AS) oligonucleotide (300 micro grams/kg, Q12 h, intraperitoneal) or saline was administered for 6 days prior to zymosan administration. Three hours after administration of zymosan, rats are injected with Evans blue dye which enables the assessment of plasma extravasation of the colon (degree of inflammation). […] Statistical analysis was performed using an unpaired t-test.

The mark [7] stands for this setting: intrathecal 2 micro grams/microlitres/h for 72 h starting 6 days following nerve constriction.

For the substance “5′gac gtt atc cat ttt ggg g3′ (antisense GACGTTATCCATTTTGGGG; listed as DNA, chemistry not fully specified) [NK-1 receptor antisense oligonucleotide used in all experiments]”, the “capsaicin-induced nociceptive behavior (weighted pain score)” value in the data set with NK-1 receptor [1] is listed as “less time spent in nociceptive behavior”. In the data set on NK-1 receptor [2] (intrathecal 0.45 micro grams/microlitres/h for 6 days starting 7 days following nerve constriction), the “reversal of established mechanical allodynia, lower dose” value is on record as “had no effect in reversing the decrease in mechanical thresholds”. In the data set on NK-1 receptor [2] (intrathecal 1 micro grams/microlitres/h from 2 days prior to surgery, catheter just less than 1 cm from lumbar level), the “prevention of mechanical allodynia, delivery to sacral rather than lumbar spinal cord” value was “failed to prevent the development of allodynia”. Moreover, in the data set with NK-1 receptor [2] (setting [7]), the “mechanical response threshold, contralateral side” value is recorded as “no effect” and the “reversal of established mechanical allodynia, ipsilateral hind paw” value is recorded as “reversed allodynia”. In addition, the “mechanical response threshold, ipsilateral hind paw (prevention of mechanical allodynia)” value in the data set with NK-1 receptor [2] (intrathecal (lumbar) 1 micro grams/microlitres/h from 2 days prior to sciatic nerve constriction and throughout testing) is on record as “did not show a decrease in their threshold of mechanical stimulation”. In addition, in the data set with NK-1 receptor [3], the “NK-1 receptor protein expression (Western blot) compared to ACSF control” value is given as “significantly attenuates the protein expression”. Also, in the data set with NK-1 receptor [4], the “joint flexibility (difference between extension and flexion) compared to saline controls” value was “significantly improved flexibility”; the “joint flexibility compared to naïve animals” value is “not significantly different”. For the same substance, the “collagen breakdown products in plasma compared to saline controls” value in the data set on NK-1 receptor [5] is listed as “significant attenuation”. In addition, the “zymosan-induced plasma extravasation of the colon” value in the data set with NK-1 receptor [6] was “significantly lower”.
